Laboratory results published in patent EP0319030A1, “Aminopropanol derivatives of 1,4:3,6-dianhydro-hexitol nitrates, processes for their preparation and their use as medicaments” (Heinrich Mack Nachf., priority 1987, dated 1989).
Marks after values point to notes of the source that are not given here.

Assays:
Format in all cases: in vivo
Mice = assay: Peroral tolerance in mice; settings: 500 mg/kg perorally, mice
From the text: Set forth below is data obtained on the compounds of Examples 17, 19 and 20 that illustrates the pharmacological action of the compounds of the present invention.

anesthetized rat = assay: Lypressin-induced T-wave increase in the ECG (lypressin coronary spasm), method of M. Leitold et al.
From the text: (§1) In particular, they have a pronounced cardiovascular action. On isolated strips of veins from dogs, they act against the K⁺-induced contraction in a lower concentration than on aorta strips. On isolated hearts from guinea pigs, they increase coronary flow as a function of the dose. On anesthetized rats, they prevent lypressin coronary spasm as a function of the dose and significiantly increase the survival rate of rats following acute cardiac infarction. On normotensive conscious dogs, they lower the systolic blood pressure for a period of 6-8 hours after oral administration. On artifically respirated anesthetized, thoraxotomized dogs, they reduce the mean arterial pressure, the left ventricular systolic pressure, the left ventricular end diastolic pressure and the pressure in the Arteria pulmonalis and reduce the peripheral vascular resistance. In contrast to the known organic nitrate esters, they also lead to a long-lasting reduction in the systolic blood pressure of spontaneously hypertensive rats. Such an action profile is not known for any of the substances of similar structure which have already been described.

rats = assay: Survival rate after acute coronary ligature, method of I. Lepran et al.; settings: 100.0 mg/kg orally 5 minutes before ligature
From the text: as §1

conscious beagle dogs = assay: Systolic blood pressure and heart rate following peroral administration; settings: 5.0 mg/kg peroral, mean ± SEM
From the text: as §1

SMILES: COc1ccccc1N1CCN(CC(O)CO[C@@H]2CO[C@H]3[C@@H]2OC[C@H]3O[N+](=O)[O-])CC1 (some centres unmarked) [Example 19, 5-O-<3-[4-(2-Methoxyphenyl)-piperzinyl]-2-hydroxypropyl>-isomannide-2-nitrate]
- tolerance (clinical symptoms, fatal consequences) (Mice): without clinical symptoms and without fatal consequences
- ED50 (anesthetized rat; Rattus norvegicus, po, 0.5 h, perorally 30 minutes before the lypressin injection, dose column in mg/kg): 46.7 mg/kg
- Duration of action at the ED50 dose (anesthetized rat; perorally at various times before the lypressin injection): 4 h
- Number of rats surviving after an acute coronary ligature, 24 hours (rats; control 21/80): 15/20*
- Number of rats surviving after an acute coronary ligature, 7 days (rats; control 21/80): 15/20*
- Number of rats surviving after an acute coronary ligature, 60 minutes (rats; control 23/80): 15/20*
- HR (heart rate), Action of substance after 1 hours (conscious beagle dogs): 101 ± 5 Bts/M
- HR (heart rate), Action of substance after 2 hours (conscious beagle dogs): 90 ± 5 Bts/M
- HR (heart rate), Action of substance after 4 hours (conscious beagle dogs): 85 ± 5 Bts/M
- HR (heart rate), Action of substance after 6 hours (conscious beagle dogs): 86 ± 5 Bts/M
- SBP (systolic blood pressure), Action of substance after 1 hours (conscious beagle dogs): 105 ± 8 mmHg
- SBP (systolic blood pressure), Action of substance after 2 hours (conscious beagle dogs): 105 ± 5 mmHg
- SBP (systolic blood pressure), Action of substance after 4 hours (conscious beagle dogs): 118 ± 6 mmHg
- SBP (systolic blood pressure), Action of substance after 6 hours (conscious beagle dogs): 126 ± 6 mmHg
